Results on six compounds are retold here after publication PMC7180638, “Synthesis of Pyrrolidine Monocyclic Analogues of Pochonicine and Its Stereoisomers: Pursuit of Simplified Structures and Potent β-N-Acetylhexosaminidase Inhibition” (Molecules, 2020).

What all share (type): biochemical
For experiment [1], the target named is β-Glucosidase (Almond). Description: β-Glucosidase (almond) inhibition. The procedure: (§1) With rat intestinal maltase as an exception, other enzymes were purchased from Sigma-Aldrich Chemical Co. (St. Louis, MO, USA). Brush border membranes prepared from rat small intestine according to the method of Kessler et al. were assayed at pH 6.8 for rat intestinal maltase using maltose. The released D-glucose was determined colorimetrically using the Glucose CII-test Wako (Wako Pure Chemical Ind.; Osaka, Japan). Other glycosidase activities were determined using an appropriate p-nitrophenyl glycoside as substrate in a buffer solution at the optimal pH value of each enzyme. The reaction was stopped by adding 400 mM Na2CO3. The released p-nitrophenol was measured spectrometrically at 400 nm.

The target of experiment [2] is T1, β-Glucuronidase (E. coli) (Escherichia coli, UniProt P05804).
T1 construct: purchased Sigma-Aldrich Chemical Co
T1 sequence (P05804 whole entry): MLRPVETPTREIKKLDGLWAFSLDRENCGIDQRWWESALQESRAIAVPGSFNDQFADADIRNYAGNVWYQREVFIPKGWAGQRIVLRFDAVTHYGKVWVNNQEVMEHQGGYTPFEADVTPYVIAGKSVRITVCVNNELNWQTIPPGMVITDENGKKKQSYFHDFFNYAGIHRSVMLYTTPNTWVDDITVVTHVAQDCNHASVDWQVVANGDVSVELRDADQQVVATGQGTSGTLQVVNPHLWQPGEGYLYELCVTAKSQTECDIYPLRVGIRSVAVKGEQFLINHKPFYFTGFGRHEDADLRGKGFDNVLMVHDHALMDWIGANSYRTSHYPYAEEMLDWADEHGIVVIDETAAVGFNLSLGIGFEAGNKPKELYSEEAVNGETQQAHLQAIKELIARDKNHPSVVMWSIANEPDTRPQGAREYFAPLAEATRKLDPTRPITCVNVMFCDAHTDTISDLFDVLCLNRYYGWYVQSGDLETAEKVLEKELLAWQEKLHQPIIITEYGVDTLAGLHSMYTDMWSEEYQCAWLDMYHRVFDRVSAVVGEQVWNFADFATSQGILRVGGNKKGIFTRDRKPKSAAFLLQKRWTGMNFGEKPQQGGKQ
Description: β-Glucuronidase (E. coli) inhibition. As for the experimental part: as §1

Experiment [3] addresses β-N-Acetylhexosaminidase (HL60). Description: β-N-Acetylhexosaminidase (HL60) inhibition. Particulars: for IC50: β-N-Acetylhexosaminidase (β-GlcNAcase); for Inhibition % at 1000 μM: β-N-Acetylhexosaminidase. As for the experimental part: as §1
In experiment [4] the target is T2, Amyloglucosidase (A. niger) (Aspergillus niger, UniProt P69328).
T2 construct: purchased Sigma-Aldrich Chemical Co
T2 sequence (P69328 25-640): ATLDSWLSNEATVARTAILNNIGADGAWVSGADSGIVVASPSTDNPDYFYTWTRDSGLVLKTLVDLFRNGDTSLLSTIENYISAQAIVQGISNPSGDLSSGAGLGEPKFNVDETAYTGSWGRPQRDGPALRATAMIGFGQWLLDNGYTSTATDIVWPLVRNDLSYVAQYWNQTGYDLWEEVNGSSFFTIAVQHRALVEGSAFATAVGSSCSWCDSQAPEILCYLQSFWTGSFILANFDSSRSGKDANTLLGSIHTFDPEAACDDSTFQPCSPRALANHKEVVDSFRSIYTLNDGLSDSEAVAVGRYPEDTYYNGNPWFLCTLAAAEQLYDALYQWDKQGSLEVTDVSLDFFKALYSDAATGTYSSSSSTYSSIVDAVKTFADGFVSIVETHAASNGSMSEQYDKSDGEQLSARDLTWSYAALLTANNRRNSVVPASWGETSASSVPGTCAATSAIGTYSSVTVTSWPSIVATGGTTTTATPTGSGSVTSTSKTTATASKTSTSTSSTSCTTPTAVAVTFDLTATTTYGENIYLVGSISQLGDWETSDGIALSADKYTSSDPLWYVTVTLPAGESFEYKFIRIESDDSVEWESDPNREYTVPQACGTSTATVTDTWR
Description: Amyloglucosidase (A. niger) inhibition. The procedure:
as §1

Experiment [5] concerns the target T3, α,α-Trehalase (Porcine kidney) (Sus scrofa, UniProt I3LIR5).
T3 construct: purchased Sigma-Aldrich Chemical Co; host or cells: porcine kidney
T3 sequence (I3LIR5 24-583): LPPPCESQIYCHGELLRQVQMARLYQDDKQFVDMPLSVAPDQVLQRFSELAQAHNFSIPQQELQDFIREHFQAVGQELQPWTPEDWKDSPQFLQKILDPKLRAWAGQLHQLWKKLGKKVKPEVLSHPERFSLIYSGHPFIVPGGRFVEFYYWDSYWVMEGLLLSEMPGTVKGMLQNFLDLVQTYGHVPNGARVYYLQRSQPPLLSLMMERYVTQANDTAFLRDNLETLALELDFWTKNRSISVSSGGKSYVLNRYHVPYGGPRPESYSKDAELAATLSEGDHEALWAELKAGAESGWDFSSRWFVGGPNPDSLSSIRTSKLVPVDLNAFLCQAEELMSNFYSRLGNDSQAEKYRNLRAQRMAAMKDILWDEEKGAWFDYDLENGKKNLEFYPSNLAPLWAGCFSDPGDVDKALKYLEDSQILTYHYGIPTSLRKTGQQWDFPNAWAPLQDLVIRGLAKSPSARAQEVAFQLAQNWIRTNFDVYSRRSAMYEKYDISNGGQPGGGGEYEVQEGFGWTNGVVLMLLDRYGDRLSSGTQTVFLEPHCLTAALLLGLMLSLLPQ
Description: α,α-Trehalase (porcine kidney) inhibition. The procedure: as §1

Experiment [6] addresses T4, α-Mannosidase (Jack bean) (Canavalia ensiformis, UniProt C0HJB3).
T4 construct: purchased Sigma-Aldrich Chemical Co
T4 sequence (C0HJB3 1-981): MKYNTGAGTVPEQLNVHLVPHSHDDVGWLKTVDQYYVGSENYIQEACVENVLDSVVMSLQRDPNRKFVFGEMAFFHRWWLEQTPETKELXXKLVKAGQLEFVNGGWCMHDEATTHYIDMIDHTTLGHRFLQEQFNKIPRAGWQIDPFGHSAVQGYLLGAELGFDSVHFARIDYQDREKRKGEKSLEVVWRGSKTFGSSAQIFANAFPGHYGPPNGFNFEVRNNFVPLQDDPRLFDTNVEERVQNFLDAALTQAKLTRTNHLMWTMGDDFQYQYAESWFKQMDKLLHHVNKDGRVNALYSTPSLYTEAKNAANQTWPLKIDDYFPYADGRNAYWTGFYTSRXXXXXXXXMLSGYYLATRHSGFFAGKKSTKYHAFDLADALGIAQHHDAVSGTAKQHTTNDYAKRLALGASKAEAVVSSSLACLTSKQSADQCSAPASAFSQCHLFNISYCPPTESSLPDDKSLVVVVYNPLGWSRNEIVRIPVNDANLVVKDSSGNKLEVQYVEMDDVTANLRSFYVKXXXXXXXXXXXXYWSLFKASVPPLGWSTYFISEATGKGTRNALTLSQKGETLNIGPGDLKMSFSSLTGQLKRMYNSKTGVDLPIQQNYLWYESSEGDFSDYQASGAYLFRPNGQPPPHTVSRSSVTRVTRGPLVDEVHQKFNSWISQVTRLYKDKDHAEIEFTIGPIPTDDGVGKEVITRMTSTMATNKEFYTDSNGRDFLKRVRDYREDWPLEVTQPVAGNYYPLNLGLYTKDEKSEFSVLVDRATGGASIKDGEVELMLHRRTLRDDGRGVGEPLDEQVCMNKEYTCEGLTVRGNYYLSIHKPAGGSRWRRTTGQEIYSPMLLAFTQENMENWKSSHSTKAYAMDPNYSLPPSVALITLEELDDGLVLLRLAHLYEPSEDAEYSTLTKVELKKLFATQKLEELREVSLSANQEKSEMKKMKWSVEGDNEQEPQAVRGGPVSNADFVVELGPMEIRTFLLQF
Description: α-Mannosidase (Jack bean) inhibition. The procedure:
as §1

Experiment [7] addresses α-L-Rhamnosidase (P. decumbens). Nature of the experiment: α-L-Rhamnosidase (P. decumbens) inhibition. As for the experimental part:
as §1

In experiment [8] the target is T5, β-Galactosidase (Bovine liver) (Bos taurus, UniProt F1MNT6).
T5 sequence (F1MNT6 1-469): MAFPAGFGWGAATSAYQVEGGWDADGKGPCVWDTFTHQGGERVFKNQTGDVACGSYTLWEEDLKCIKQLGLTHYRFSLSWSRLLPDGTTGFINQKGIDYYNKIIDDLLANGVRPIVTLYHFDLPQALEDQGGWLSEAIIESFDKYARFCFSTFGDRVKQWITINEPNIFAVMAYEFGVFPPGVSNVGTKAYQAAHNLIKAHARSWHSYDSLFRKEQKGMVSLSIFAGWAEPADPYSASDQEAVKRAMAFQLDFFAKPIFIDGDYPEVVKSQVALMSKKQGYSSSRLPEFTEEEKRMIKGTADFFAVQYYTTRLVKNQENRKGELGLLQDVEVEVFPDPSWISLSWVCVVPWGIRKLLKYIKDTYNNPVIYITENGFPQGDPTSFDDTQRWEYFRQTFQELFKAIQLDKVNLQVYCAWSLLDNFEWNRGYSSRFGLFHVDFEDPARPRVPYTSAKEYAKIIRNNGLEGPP
Description: β-Galactosidase (bovine liver) inhibition. As for the experimental part:
as §1

[9] abbreviates: 1000 μM, read-out: Inhibition % at 1000 μM.

Where a name gives a salt, the structure may show the parent alone. Read-outs that look alike come from different tables or passages of the source. Some results are limits rather than exact numbers.

Take `CC(=O)NC[C@H]1N[C@@H](CO)[C@H](O)[C@@H]1O` [G-10, 1-N-acetylamino-2,5-imino-1,2,5-trideoxy-D-allitol hydrochloride]: the IC50 result in experiment [1], in experiment [3] and in experiment [7] was “NI (No Inhibition (less than 50% at 1000 μM))” in each case. Besides, the figures for the “Inhibition % at 1000 μM” value in experiment [1], in experiment [3] and in experiment [7] were 15.3%, 18.8% and 9.5%, respectively. In addition, the inhibition at 1000 µM in experiment [2] (setting [9]) is 0%; in experiment [2] (read-out: IC50) it was less than 50%; in experiment [4] (setting [9]), 7.6%; in experiment [4] (read-out: IC50), less than 50%; in experiment [5] (setting [9]) it was 5.6%; in experiment [5] (read-out: IC50), less than 50%. Further, the inhibition at 1000 µM was 4% in experiment [6] (setting [9]), less than 50% in experiment [6] (read-out: IC50), 2.9% in experiment [8] (setting [9]) and less than 50% in experiment [8] (read-out: IC50).

Take `CC(=O)NC[C@@H]1N[C@@H](CO)[C@H](O)[C@H]1O` [A-10, 1-N-acetylamino-2,5-imino-1,2,5-trideoxy-L-mannitol hydrochloride]: the IC50 entry in experiment [1], in experiment [3] and in experiment [7] was “NI (No Inhibition (less than 50% at 1000 μM))” each time. Further, the “Inhibition % at 1000 μM” value worked out at 16.1% in experiment [1], 12.7% in experiment [3] and 10.1% in experiment [7]. In addition, the inhibition at 1000 µM in experiment [2] (setting [9]) was 0%; in experiment [2] (read-out: IC50), less than 50%; in experiment [4] (setting [9]), 5.5%; in experiment [4] (read-out: IC50) it was less than 50%; in experiment [5] (setting [9]), 4.3%; in experiment [5] (read-out: IC50), less than 50%. Also, the inhibition at 1000 µM in experiment [6] (setting [9]) was 0%; in experiment [6] (read-out: IC50) it was less than 50%; in experiment [8] (setting [9]) it was 1.6%; in experiment [8] (read-out: IC50), less than 50%.

On to `CC(=O)NC[C@@H]1N[C@@H](CO)[C@@H](O)[C@@H]1O` [E-10b, 1-N-acetylamino-2,5-imino-1,2,5-trideoxy-L-iditol hydrochloride], for which the IC50 entry in experiment [1], in experiment [3] and in experiment [7] was “NI (No Inhibition (less than 50% at 1000 μM))” in each case. Further, the “Inhibition % at 1000 μM” value in experiment [1] worked out at 1.2%; in experiment [3], 4.5%; in experiment [7] it was 30.8%. Besides, the inhibition at 1000 µM in experiment [2] (setting [9]) is 0%; in experiment [2] (read-out: IC50), less than 50%; in experiment [4] (setting [9]) it was 6.4%; in experiment [4] (read-out: IC50), less than 50%; in experiment [5] (setting [9]), 0%; in experiment [5] (read-out: IC50), less than 50%. Further, the inhibition at 1000 µM was 3.8% in experiment [6] (setting [9]), less than 50% in experiment [6] (read-out: IC50), 3.9% in experiment [8] (setting [9]) and less than 50% in experiment [8] (read-out: IC50).

Turning to `CC(=O)NC[C@H]1N[C@H](CO)[C@@H](O)[C@@H]1O` [4·HCl, 1-N-acetylamino-2,5-imino-1,2,5-trideoxy-D-mannitol hydrochloride], the IC50 was 170 µM in experiment [1] (read-out: IC50), 34 µM in experiment [3] (read-out: IC50) and “NI (No Inhibition (less than 50% at 1000 μM))” in experiment [7]. Further, the inhibition at 1000 µM is 0.6% in experiment [2] (setting [9]); less than 50% in experiment [2] (read-out: IC50); 40.6% in experiment [4] (setting [9]); less than 50% in experiment [4] (read-out: IC50); 20.3% in experiment [5] (setting [9]); less than 50% in experiment [5] (read-out: IC50). Further, the inhibition at 1000 µM was 0% in experiment [6] (setting [9]) and less than 50% in experiment [6] (read-out: IC50). Besides, in experiment [7], the “Inhibition % at 1000 μM” value was 6.5%.

Take `CC(=O)NC[C@@H]1N[C@H](CO)[C@H](O)[C@H]1O` [F-10a, 1-N-acetylamino-2,5-imino-1,2,5-trideoxy-L-glucitol hydrochloride]: the IC50 result in experiment [1], in experiment [3] and in experiment [7] was “NI (No Inhibition (less than 50% at 1000 μM))” in each case. Further, the figures for the “Inhibition % at 1000 μM” value in experiment [1], in experiment [3] and in experiment [7] were 11.6%, 0% and 5.3%, respectively. Moreover, the inhibition at 1000 µM in experiment [2] (setting [9]) is 0%; in experiment [2] (read-out: IC50) it was less than 50%; in experiment [4] (setting [9]), 2.8%; in experiment [4] (read-out: IC50), less than 50%; in experiment [5] (setting [9]), 3%; in experiment [5] (read-out: IC50), less than 50%. Also, the inhibition at 1000 µM in experiment [6] (setting [9]) was 0%; in experiment [6] (read-out: IC50), less than 50%; in experiment [8] (setting [9]), 4.2%; in experiment [8] (read-out: IC50), less than 50%.

With `CC(=O)NC[C@@H]1N[C@@H](CO)[C@@H](O)[C@H]1O` [C-10, 1-N-acetylamino-2,5-imino-1,2,5-trideoxy-L-altritol hydrochloride], the IC50 entry in experiment [1], in experiment [3] and in experiment [7] was “NI (No Inhibition (less than 50% at 1000 μM))” each time. Also, the figures for the “Inhibition % at 1000 μM” value in experiment [1], in experiment [3] and in experiment [7] were 0%, 3.9% and 3.6%, respectively. In addition, the inhibition at 1000 µM in experiment [2] (setting [9]) was 0.3%; in experiment [2] (read-out: IC50), less than 50%; in experiment [4] (setting [9]) it was 1.9%; in experiment [4] (read-out: IC50), less than 50%; in experiment [5] (setting [9]), 0%; in experiment [5] (read-out: IC50) it was less than 50%. The inhibition at 1000 µM is 0.4% in experiment [6] (setting [9]), less than 50% in experiment [6] (read-out: IC50), 1.3% in experiment [8] (setting [9]) and less than 50% in experiment [8] (read-out: IC50).

As usually defined, the IC50 is the concentration needed to halve the response being measured.
